The structures appear in SMILES notation.

The first data set is described as follows: Solubility in water at 20° C. of acidic substances. It is filed as physicochemical. To be noted: MW={C/(100+C)}×100, C = mass (g) of solute dissolved in 100 g of water. On the procedure: The “solubility in water” herein is a value obtained by calculation using the following equation (A) on the basis of the mass (g) of a solute that is dissolved in 100 g of water. MW={C/(100+C)}×100 (A) In the equation (A), MW represents the solubility (%) in water and C represents the mass (g) of a solute that is dissolved in 100 g of water.
In the case of `O=C(O)CC(O)C(=O)O` (racemic) [DL-MALIC ACID, DL-malic acid], the “SOLUBILITY IN WATER (20° C.)” value is on record as 36.0%. Turning to `O=C(O)/C=C/C(=O)O` [FUMARIC ACID, fumaric acid], the “SOLUBILITY IN WATER (20° C.)” value came out at 0.63%.

A further data set can be described thus: pH measurement of acidic/basic substances (2.5% liquid, pH meter). It is filed as physicochemical. To be noted: 50 mg substance dissolved or suspended in 1,950 μL of water (concentration: 2.5%).
Consider `O=C(O)CC(O)C(=O)O` (racemic) [DL-MALIC ACID, DL-malic acid], for which the pH was determined as 2.1. Compound `O=C(O)CC(O)(CC(=O)O)C(=O)O` [ANHYDROUS CITRIC ACID, citric acid anhydride] displayed a pH of 2.1. In turn, `O=C([O-])CC(O)(CC(=O)[O-])C(=O)O.[Na+].[Na+]` [DIBASIC SODIUM CITRATE, dibasic sodium citrate] displayed a pH of 5.1. The compound `O=C(O)/C=C/C(=O)O` [FUMARIC ACID, fumaric acid] returned a pH of 2.2. `O=C(O)C(O)C(O)C(=O)O` [L-(+)TARTARIC ACID, L-(+)tartaric acid] returned a pH of 1.9. Compound `N[C@@H](CC(=O)O)C(=O)O` [L-ASPARTIC ACID, L-aspartic acid] came in with a pH of 2.8. As to `Cl.N[C@@H](CCC(=O)O)C(=O)O` [L-GLUTAMIC ACID HYDROCHLORIDE, L-glutamic acid hydrochloride], the pH was determined as 1.5. In turn, `N[C@@H](CCC(=O)O)C(=O)O` [L-GLUTAMIC ACID, L-glutamic acid] had a pH of 3.0. On the same count and under the same terms, as for `O=C([O-])CC(O)(CC(=O)O)C(=O)O.[Na+]` [MONOBASIC SODIUM CITRATE, monobasic sodium citrate], the figure is 3.7; as for `O=C([O-])CC(O)(CC(=O)[O-])C(=O)[O-].[Na+].[Na+].[Na+]` [SODIUM CITRATE, sodium citrate], 8.2.

For the origin of these results see patent US9603804B2, “Solid pharmaceutical composition” (KYORIN PHARMACEUTICAL CO., LTD., priority 2013, dated 2017).
